# Measurements: PubChem BioAssay (NCI)
#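 Compound exposure: 48 hours, 5 concentrations, 96-well plates. The concentration for full growth arrest is given as TGI.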
# Assays:
# Assay in all cases: inhibition of tumour cell growth, NCI panel, 48 h
# [1] = tested on: NCI-H23 lung
# [2] = tested on: UO-31 renal
# [3] = tested on: NCI-H226 lung
# [4] = tested on: HT29 colon
# [5] = tested on: OVCAR-4 ovarian
# [6] = tested on: SF-268 CNS
# [7] = tested on: MCF7 breast
# [8] = tested on: HS 578T breast
# [9] = tested on: NCI-H522 lung
# [10] = tested on: SNB-75 CNS
# [11] = tested on: BT-549 breast
# [12] = tested on: TK-10 renal
# [13] = tested on: HCT-116 colon
# [14] = tested on: LOX IMVI melanoma
# [15] = tested on: MDA-N
# [16] = tested on: RXF 393 renal
# [17] = tested on: HCC-2998 colon
# [18] = tested on: SK-MEL-28 melanoma
# [19] = tested on: COLO 205 colon
# [20] = tested on: IGROV1 ovarian
# [21] = tested on: U251 CNS
# [22] = tested on: EKVX NSCLC
# [23] = tested on: SK-MEL-2 melanoma
# [24] = tested on: KM12 colon
# [25] = tested on: K-562 leukemia
# [26] = tested on: MDA-MB-231 breast
# [27] = tested on: OVCAR-3 ovarian
# [28] = tested on: SF-295 CNS
# [29] = tested on: T-47D breast
# [30] = tested on: SF-539 CNS
# [31] = tested on: M14 melanoma
# [32] = tested on: SK-MEL-5 melanoma
# [33] = tested on: CAKI-1 renal
# [34] = tested on: MALME-3M melanoma
# [35] = tested on: HOP-62 NSCLC
# [36] = tested on: SN12C renal
# [37] = tested on: OVCAR-8 ovarian
# [38] = tested on: UACC-257 melanoma
# [39] = tested on: A549 NSCLC
# [40] = tested on: UACC-62 melanoma
# [41] = tested on: HCT-15 colon
# [42] = tested on: MDA-MB-435
# [43] = tested on: PC-3 prostate
# [44] = tested on: MOLT-4 leukemia
# [45] = tested on: SNB-19 CNS
# [46] = tested on: CCRF-CEM leukemia
# [47] = tested on: SR leukemia
# [48] = tested on: SW-620 colon
# [49] = tested on: 786-0 renal
# [50] = tested on: NCI-H460 lung
# [51] = tested on: SK-OV-3 ovarian
# [52] = tested on: DU-145 prostate
# [53] = tested on: RPMI-8226 leukemia
# [54] = tested on: A498 renal
# [55] = tested on: OVCAR-5 ovarian
# [56] = tested on: NCI/ADR-RES ovarian
# [57] = tested on: HL-60(TB) leukemia
# [58] = tested on: HOP-92 NSCLC
# [59] = tested on: ACHN renal
structure (smiles),measurement,setting,value
c1ccc(N=C(N2CCOCC2)N(CCN2CCOCC2)c2ccccc2)cc1,TGI,[1],> 100 µM
same,TGI,[2],> 100 µM
same,TGI,[3],> 100 µM
same,TGI,[4],> 100 µM
same,TGI,[5],> 100 µM
same,TGI,[6],> 100 µM
same,TGI,[7],> 100 µM
same,TGI,[8],> 100 µM
same,TGI,[9],> 100 µM
same,TGI,[10],> 100 µM
same,TGI,[11],> 100 µM
same,TGI,[12],> 100 µM
same,TGI,[13],> 100 µM
same,TGI,[14],> 100 µM
same,TGI,[15],> 100 µM
same,TGI,[16],> 100 µM
same,TGI,[17],> 100 µM
same,TGI,[18],> 100 µM
same,TGI,[19],> 100 µM
same,TGI,[20],> 100 µM
same,TGI,[21],> 100 µM
same,TGI,[22],> 100 µM
same,TGI,[23],> 100 µM
same,TGI,[24],> 100 µM
same,TGI,[25],> 100 µM
same,TGI,[26],> 100 µM
same,TGI,[27],> 100 µM
same,TGI,[28],> 100 µM
same,TGI,[29],> 100 µM
same,TGI,[30],> 100 µM
same,TGI,[31],> 100 µM
same,TGI,[32],> 100 µM
same,TGI,[33],> 100 µM
same,TGI,[34],> 100 µM
same,TGI,[35],> 100 µM
same,TGI,[36],> 100 µM
same,TGI,[37],> 100 µM
same,TGI,[38],> 100 µM
same,TGI,[39],> 100 µM
same,TGI,[40],> 100 µM
same,TGI,[41],> 100 µM
same,TGI,[42],> 100 µM
same,TGI,[43],> 100 µM
same,TGI,[44],> 100 µM
same,TGI,[45],> 100 µM
same,TGI,[46],> 100 µM
same,TGI,[47],> 100 µM
same,TGI,[48],> 100 µM
same,TGI,[49],> 100 µM
same,TGI,[50],> 100 µM
same,TGI,[51],> 100 µM
same,TGI,[52],> 100 µM
same,TGI,[53],> 100 µM
C1=Nc2ccc(cc2)N=Cc2ccccc2OCc2cccc(n2)COc2ccccc21,TGI,[1],> 100 µM
same,TGI,[2],> 100 µM
same,TGI,[3],> 100 µM
same,TGI,[4],> 100 µM
same,TGI,[5],> 100 µM
same,TGI,[7],> 100 µM
same,TGI,[9],> 100 µM
same,TGI,[11],> 100 µM
same,TGI,[12],> 100 µM
same,TGI,[13],> 100 µM
same,TGI,[14],> 100 µM
same,TGI,[15],> 100 µM
same,TGI,[16],36.2 µM
same,TGI,[17],> 100 µM
same,TGI,[19],> 100 µM
same,TGI,[20],> 100 µM
same,TGI,[21],> 100 µM
same,TGI,[22],> 100 µM
same,TGI,[23],> 100 µM
same,TGI,[24],> 100 µM
same,TGI,[54],> 100 µM
same,TGI,[25],> 100 µM
same,TGI,[26],> 100 µM
same,TGI,[27],> 100 µM
same,TGI,[28],> 100 µM
same,TGI,[29],> 100 µM
same,TGI,[30],81.6 µM
same,TGI,[31],> 100 µM
same,TGI,[32],> 100 µM
same,TGI,[55],> 100 µM
same,TGI,[33],> 100 µM
same,TGI,[34],> 100 µM
same,TGI,[35],> 100 µM
same,TGI,[56],> 100 µM
same,TGI,[36],> 100 µM
same,TGI,[37],> 100 µM
same,TGI,[57],> 100 µM
same,TGI,[38],> 100 µM
same,TGI,[39],> 100 µM
same,TGI,[58],> 100 µM
same,TGI,[40],> 100 µM
same,TGI,[41],> 100 µM
same,TGI,[42],> 100 µM
same,TGI,[59],> 100 µM
same,TGI,[43],> 100 µM
same,TGI,[44],> 100 µM
same,TGI,[45],75.1 µM
same,TGI,[46],> 100 µM
same,TGI,[47],> 100 µM
same,TGI,[48],> 100 µM
same,TGI,[49],> 100 µM
same,TGI,[50],> 100 µM
same,TGI,[51],> 100 µM
same,TGI,[52],> 100 µM
